Experimental data taken from ChEMBL document CHEMBL1132087, “New N-substituted 7-aminocephalosporanic acid derivatives as potential agents against Streptococcus pneumoniae. Synthesis and in vitro activity” (1999).
Converted amounts (≈) assume the structure as drawn.

Key:
Assay type in all cases: functional
Streptococcus pneumoniae [1] = assay: In vitro antibacterial activity against the gram-positive bacteria, penicillin sensitive Streptococcus pneumoniae (3512)
Staphylococcus aureus [2] = assay: In vitro antibacterial activity against the gram-positive bacteria, penicillin resistant Staphylococcus aureus (2672)
Streptococcus pneumoniae [3] = assay: In vitro antibacterial activity against the gram-positive bacteria, penicillin sensitive Streptococcus pneumoniae (3273)
Staphylococcus aureus [4] = assay: In vitro antibacterial activity against the gram-positive bacteria, penicillin sensitive Staphylococcus aureus (3849)
Streptococcus pneumoniae [5] = assay: In vitro antibacterial activity against the gram-positive bacteria, penicillin resistant Streptococcus pneumoniae (4635)
Streptococcus pyogenes = assay: In vitro antibacterial activity against the gram-positive bacteria, erythromycin resistant Streptococcus pyogenes
Staphylococcus aureus [6] = assay: In vitro antibacterial activity against the gram-positive bacteria, penicillin resistant Staphylococcus aureus (2619)
Streptococcus pneumoniae [7] = assay: In vitro antibacterial activity against the gram-positive bacteria, penicillin sensitive Streptococcus pneumoniae (3272)
Streptococcus pneumoniae [8] = assay: In vitro antibacterial activity against the gram-positive bacteria, penicillin resistant Streptococcus pneumoniae (4630)
Staphylococcus aureus [9] = assay: In vitro antibacterial activity against the gram-positive bacteria, penicillin resistant Staphylococcus aureus (853)
Streptococcus pneumoniae [10] = assay: In vitro antibacterial activity against the gram-positive bacteria, penicillin resistant Streptococcus pneumoniae (4629)
Streptococcus pneumoniae [11] = assay: In vitro antibacterial activity against the gram-positive bacteria, penicillin resistant Streptococcus pneumoniae (4636)
Staphylococcus aureus [12] = assay: In vitro antibacterial activity against the gram-positive bacteria, penicillin sensitive Staphylococcus aureus (3072)
Staphylococcus aureus [13] = assay: In vitro antibacterial activity against the gram-positive bacteria, penicillin sensitive Staphylococcus aureus (663E)

SMILES	MIC (Streptococcus pneumoniae [1]) [µg/mL]	MIC (Staphylococcus aureus [2]) [µg/mL]	MIC (Streptococcus pneumoniae [3]) [µg/mL]	MIC (Staphylococcus aureus [4]) [µg/mL]	MIC (Streptococcus pneumoniae [5]) [µg/mL]	MIC (Streptococcus pyogenes) [µg/mL]	MIC (Staphylococcus aureus [6]) [µg/mL]	MIC (Streptococcus pneumoniae [7]) [µg/mL]	MIC (Streptococcus pneumoniae [8]) [µg/mL]	MIC (Staphylococcus aureus [9]) [µg/mL]	MIC (Streptococcus pneumoniae [10]) [µg/mL]	MIC (Streptococcus pneumoniae [11]) [µg/mL]	MIC (Staphylococcus aureus [12]) [µg/mL]	MIC (Staphylococcus aureus [13]) [µg/mL]
CC(=O)OCC1=C(C(=O)O)N2C(=O)[C@@H](NC(=O)CN(OCc3ccccc3Cl)C(=O)NCc3ccccc3)C2SC1 (stereo partly specified)	0.25 (≈ 0.415 µM)	4 (≈ 6.63 µM)	0.5 (≈ 0.829 µM)	0.5 (≈ 0.829 µM)	4 (≈ 6.63 µM)	0.25 (≈ 0.415 µM)	1 (≈ 1.66 µM)	0.5 (≈ 0.829 µM)	16 (≈ 26.5 µM)	1 (≈ 1.66 µM)	16 (≈ 26.5 µM)	64 (≈ 106 µM)	1 (≈ 1.66 µM)	0.5 (≈ 0.829 µM)
CO/N=C(\C(=O)N[C@@H]1C(=O)N2C(C(=O)[O-])=C(C[n+]3cccc4c3CCC4)CS[C@H]12)c1csc(N)n1 [CEFPIROME]	0.06 (≈ 0.117 µM)	2 (≈ 3.89 µM)	0.06 (≈ 0.117 µM)	1 (≈ 1.94 µM)	< 0.5	0.03 (≈ 0.0583 µM)	2 (≈ 3.89 µM)	0.06 (≈ 0.117 µM)	1 (≈ 1.94 µM)	2 (≈ 3.89 µM)	2 (≈ 3.89 µM)	< 0.5	1 (≈ 1.94 µM)	1 (≈ 1.94 µM)
CC(=O)OCC1=C(C(=O)O)N2C(=O)[C@@H](NC(=O)CN(OCc3cccc(Cl)c3)C(=O)Nc3ccccc3)C2SC1 (stereo partly specified)	0.12 (≈ 0.204 µM)	2 (≈ 3.4 µM)	0.12 (≈ 0.204 µM)	0.5 (≈ 0.849 µM)	2 (≈ 3.4 µM)	0.12 (≈ 0.204 µM)	1 (≈ 1.7 µM)	0.06 (≈ 0.102 µM)	4 (≈ 6.79 µM)	1 (≈ 1.7 µM)	4 (≈ 6.79 µM)	4 (≈ 6.79 µM)	0.5 (≈ 0.849 µM)	0.5 (≈ 0.849 µM)
CO/N=C(\C(=O)N[C@@H]1C(=O)N2C(C(=O)O)=C(COC(N)=O)CS[C@H]12)c1ccco1 [CEFUROXIME]	0.06 (≈ 0.141 µM)	2 (≈ 4.71 µM)	0.25 (≈ 0.589 µM)	1 (≈ 2.36 µM)	32 (≈ 75.4 µM)	0.06 (≈ 0.141 µM)	2 (≈ 4.71 µM)	0.06 (≈ 0.141 µM)	16 (≈ 37.7 µM)	2 (≈ 4.71 µM)	32 (≈ 75.4 µM)	16 (≈ 37.7 µM)	2 (≈ 4.71 µM)	1 (≈ 2.36 µM)
N[C@@H](C(=O)N[C@@H]1C(=O)N2C(C(=O)O)=C(Cl)CS[C@H]12)c1ccccc1 [CEFACLOR ANHYDROUS]	1 (≈ 2.72 µM)	64 (≈ 174 µM)	0.5 (≈ 1.36 µM)	1 (≈ 2.72 µM)	16 (≈ 43.5 µM)	0.5 (≈ 1.36 µM)	16 (≈ 43.5 µM)	1 (≈ 2.72 µM)	16 (≈ 43.5 µM)	64 (≈ 174 µM)	32 (≈ 87 µM)	16 (≈ 43.5 µM)	4 (≈ 10.9 µM)	1 (≈ 2.72 µM)
CC(=O)OCC1=C(C(=O)O)N2C(=O)[C@@H](NC(=O)CN(OCc3ccc(Cl)cc3)C(=O)NCc3ccccc3)C2SC1 (stereo partly specified)	0.25 (≈ 0.415 µM)	2 (≈ 3.32 µM)	0.5 (≈ 0.829 µM)	0.5 (≈ 0.829 µM)	4 (≈ 6.63 µM)	0.12 (≈ 0.199 µM)	1 (≈ 1.66 µM)	0.25 (≈ 0.415 µM)	8 (≈ 13.3 µM)	1 (≈ 1.66 µM)	8 (≈ 13.3 µM)	32 (≈ 53.1 µM)	1 (≈ 1.66 µM)	0.5 (≈ 0.829 µM)
CC(=O)OCC1=C(C(=O)O)N2C(=O)[C@@H](NC(=O)CN(OCc3ccccc3)C(=O)NCc3ccccc3)C2SC1 (stereo partly specified)	0.25 (≈ 0.44 µM)	2 (≈ 3.52 µM)	0.5 (≈ 0.879 µM)	1 (≈ 1.76 µM)	4 (≈ 7.03 µM)	0.25 (≈ 0.44 µM)	1 (≈ 1.76 µM)	0.12 (≈ 0.211 µM)	16 (≈ 28.1 µM)	1 (≈ 1.76 µM)	16 (≈ 28.1 µM)	32 (≈ 56.3 µM)	1 (≈ 1.76 µM)	0.5 (≈ 0.879 µM)
CC(=O)OCC1=C(C(=O)O)N2C(=O)[C@@H](NC(=O)CN(OCc3cccc(Cl)c3)C(=O)c3ccccc3)C2SC1 (stereo partly specified)	0.06 (≈ 0.105 µM)	4 (≈ 6.97 µM)	0.12 (≈ 0.209 µM)	0.5 (≈ 0.871 µM)	1 (≈ 1.74 µM)	0.25 (≈ 0.436 µM)	1 (≈ 1.74 µM)	0.06 (≈ 0.105 µM)	8 (≈ 13.9 µM)	0.5 (≈ 0.871 µM)	8 (≈ 13.9 µM)	2 (≈ 3.48 µM)	0.5 (≈ 0.871 µM)	0.5 (≈ 0.871 µM)
CC1(C)S[C@@H]2[C@H](NC(=O)Cc3ccccc3)C(=O)N2[C@H]1C(=O)O [PENICILLIN G]	< 0.5	64 (≈ 191 µM)	0.5 (≈ 1.5 µM)	< 0.5	8 (≈ 23.9 µM)		64 (≈ 191 µM)	< 0.5	4 (≈ 12 µM)	64 (≈ 191 µM)	4 (≈ 12 µM)	8 (≈ 23.9 µM)	< 0.5	< 0.5
CC(=O)OCC1=C(C(=O)O)N2C(=O)[C@@H](NC(=O)CN(OCc3ccccc3Cl)C(=O)c3ccccc3)C2SC1 (stereo partly specified)	0.25 (≈ 0.436 µM)	8 (≈ 13.9 µM)	0.25 (≈ 0.436 µM)	0.5 (≈ 0.871 µM)	16 (≈ 27.9 µM)	0.5 (≈ 0.871 µM)	4 (≈ 6.97 µM)	0.25 (≈ 0.436 µM)	16 (≈ 27.9 µM)	1 (≈ 1.74 µM)	16 (≈ 27.9 µM)	32 (≈ 55.7 µM)	1 (≈ 1.74 µM)	1 (≈ 1.74 µM)
CC(=O)OCC1=C(C(=O)O)N2C(=O)[C@@H](NC(=O)CN(OCc3ccccc3)C(=O)c3ccccc3)C2SC1 (stereo partly specified)	0.03 (≈ 0.0556 µM)	8 (≈ 14.8 µM)	0.06 (≈ 0.111 µM)	0.5 (≈ 0.927 µM)	8 (≈ 14.8 µM)	0.25 (≈ 0.463 µM)	2 (≈ 3.71 µM)	0.06 (≈ 0.111 µM)	8 (≈ 14.8 µM)	1 (≈ 1.85 µM)	8 (≈ 14.8 µM)	16 (≈ 29.7 µM)	1 (≈ 1.85 µM)	0.5 (≈ 0.927 µM)
CC(=O)OCC1=C(C(=O)O)N2C(=O)[C@@H](NC(=O)CN(OCc3ccccc3Cl)C(=O)Nc3ccccc3)C2SC1 (stereo partly specified)	0.12 (≈ 0.204 µM)	2 (≈ 3.4 µM)	0.25 (≈ 0.424 µM)	0.5 (≈ 0.849 µM)	4 (≈ 6.79 µM)	0.12 (≈ 0.204 µM)	1 (≈ 1.7 µM)	0.25 (≈ 0.424 µM)	8 (≈ 13.6 µM)	2 (≈ 3.4 µM)	8 (≈ 13.6 µM)	8 (≈ 13.6 µM)	0.5 (≈ 0.849 µM)	0.5 (≈ 0.849 µM)
CC(=O)OCC1=C(C(=O)O)N2C(=O)[C@@H](NC(=O)CN(OCc3cccc(Cl)c3)C(=O)NCc3ccccc3)C2SC1 (stereo partly specified)	0.25 (≈ 0.415 µM)	2 (≈ 3.32 µM)	0.5 (≈ 0.829 µM)	0.5 (≈ 0.829 µM)	4 (≈ 6.63 µM)	0.25 (≈ 0.415 µM)	2 (≈ 3.32 µM)	0.25 (≈ 0.415 µM)	8 (≈ 13.3 µM)	1 (≈ 1.66 µM)	8 (≈ 13.3 µM)	32 (≈ 53.1 µM)	1 (≈ 1.66 µM)	1 (≈ 1.66 µM)
CC(=O)OCC1=C(C(=O)O)N2C(=O)[C@@H](NC(=O)CN(OCc3ccc(Cl)cc3)C(=O)c3ccccc3)C2SC1 (stereo partly specified)	0.12 (≈ 0.209 µM)	8 (≈ 13.9 µM)	0.12 (≈ 0.209 µM)	1 (≈ 1.74 µM)	8 (≈ 13.9 µM)	0.12 (≈ 0.209 µM)	2 (≈ 3.48 µM)	0.12 (≈ 0.209 µM)	8 (≈ 13.9 µM)	2 (≈ 3.48 µM)	8 (≈ 13.9 µM)	16 (≈ 27.9 µM)	0.5 (≈ 0.871 µM)	0.5 (≈ 0.871 µM)
CC(=O)OCC1=C(C(=O)O)N2C(=O)[C@@H](NC(=O)CN(OCc3ccc(Cl)cc3)C(=O)Nc3ccccc3)C2SC1 (stereo partly specified)	0.06 (≈ 0.102 µM)	4 (≈ 6.79 µM)	0.25 (≈ 0.424 µM)	0.5 (≈ 0.849 µM)	4 (≈ 6.79 µM)	0.06 (≈ 0.102 µM)	1 (≈ 1.7 µM)	0.12 (≈ 0.204 µM)	4 (≈ 6.79 µM)	1 (≈ 1.7 µM)	8 (≈ 13.6 µM)	16 (≈ 27.2 µM)	0.5 (≈ 0.849 µM)	0.5 (≈ 0.849 µM)
CC(=O)OCC1=C(C(=O)O)N2C(=O)[C@@H](NC(=O)CN(OCc3ccccc3)C(=O)Nc3ccccc3)C2SC1 (stereo partly specified)	0.25 (≈ 0.451 µM)	4 (≈ 7.21 µM)	0.25 (≈ 0.451 µM)	0.5 (≈ 0.902 µM)	8 (≈ 14.4 µM)	0.12 (≈ 0.216 µM)	2 (≈ 3.61 µM)	0.12 (≈ 0.216 µM)	8 (≈ 14.4 µM)	1 (≈ 1.8 µM)	8 (≈ 14.4 µM)	16 (≈ 28.9 µM)	1 (≈ 1.8 µM)	0.5 (≈ 0.902 µM)
CO/N=C(\C(=O)N[C@@H]1C(=O)N2C(C(=O)O)=C(CSc3nc(=O)c(O)nn3C)CS[C@H]12)c1csc(N)n1 [CEFTRIAXONE]	0.03 (≈ 0.0541 µM)	4 (≈ 7.21 µM)	0.03 (≈ 0.0541 µM)	2 (≈ 3.61 µM)	1 (≈ 1.8 µM)	0.06 (≈ 0.108 µM)	4 (≈ 7.21 µM)	0.03 (≈ 0.0541 µM)	2 (≈ 3.61 µM)	4 (≈ 7.21 µM)	4 (≈ 7.21 µM)	1 (≈ 1.8 µM)	4 (≈ 7.21 µM)	2 (≈ 3.61 µM)
CC1(C)S[C@@H]2[C@H](NC(=O)[C@H](N)c3ccc(O)cc3)C(=O)N2[C@H]1C(=O)O.O=C(O)[C@H]1/C(=C/CO)O[C@@H]2CC(=O)N21	< 0.015	1	< 0.015	0.25	4	0.06	2	< 0.015	2	2	4	4	0.5	0.25
